Tests used:
Assay type in all cases: cell-based
adenosine A1 receptor = biological target: T1, adenosine A1 receptor (Homo sapiens, UniProt P30542); experiment: Indirect determination of adenosine agonism by way of gene expression (cAMP-dependent luciferase), A1 cells; details: CHO cells stably transfected with A1 receptor cDNA; 1 μM forskolin; concentration at which 50% of the luciferase answer is inhibited
T1 construct: expressed in transfected cells; host or cells: CHO (Chinese Hamster Ovary)
T1 sequence (P30542 1-326): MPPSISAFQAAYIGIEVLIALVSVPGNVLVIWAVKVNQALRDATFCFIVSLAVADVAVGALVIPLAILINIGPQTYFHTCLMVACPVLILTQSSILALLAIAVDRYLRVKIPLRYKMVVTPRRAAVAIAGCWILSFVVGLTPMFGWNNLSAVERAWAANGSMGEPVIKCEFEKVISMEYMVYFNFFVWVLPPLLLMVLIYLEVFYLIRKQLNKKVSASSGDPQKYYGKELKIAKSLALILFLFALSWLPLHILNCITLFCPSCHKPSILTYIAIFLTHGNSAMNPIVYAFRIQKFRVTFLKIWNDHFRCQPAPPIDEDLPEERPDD
Description: (§1) B-1. Indirect Determination of the Adenosine Agonism by Way of Gene Expression
(§2) Cells of the CHO (Chinese Hamster Ovary) permanent cell line are transfected stably with the cDNA for the adenosine receptor subtypes A1, A2a and A2b. The adenosine A1 receptors are coupled to the adenylate cyclase by way of Gi proteins, while the adenosine A2a and A2b receptors are coupled by way of Gs proteins. In correspondence with this, the formation of cAMP in the cell is inhibited or stimulated, respectively. After that, expression of the luciferase is modulated by way of a cAMP-dependent promoter. The luciferase test is optimized, with the aim of high sensitivity and reproducibility, low variance and good suitability for implementation on a robot system, by varying several test parameters, such as cell density, duration of the growth phase and the test incubation, forskolin concentration and medium composition. The following test protocol is used for pharmacologically characterizing cells and for the robot-assisted substance screening:
(§3) The stock cultures are grown, at 37° C. and under 5% CO2, in DMEM/F12 medium containing 10% FCS (foetal calf serum) and in each case split 1:10 after 2-3 days. The test cultures are seeded in 384-well plates with 2000 cells per well and grown at 37° C. for approx. 48 hours. The medium is then replaced with a physiological sodium chloride solution (130 mM sodium chloride, 5 mM potassium chloride, 2 mM calcium chloride, 20 mM HEPES, 1 mM magnesium chloride hexahydrate, 5 mM sodium bicarbonate, pH 7.4). The substances to be tested, which are dissolved in DMSO, are pipetted into the test cultures (maximum final concentration of DMSO in the test mixture: 0.5%) in a dilution series of from 5×10^−11M to 3×10^−6M (final concentration). 10 minutes later, forskolin is added to the A1 cells and all the cultures are subsequently incubated at 37° C. for four hours. After that, 35 μl of a solution which is composed of 50% lysis reagent (30 mM disodium hydrogenphosphate, 10% glycerol, 3% TritonX100, 25 mM TrisHCl, 2 mM dithiotreitol (DTT), pH 7.8) and 50% luciferase substrate solution (2.5 mM ATP, 0.5 mM luciferin, 0.1 mM coenzyme A, 10 mM tricine, 1.35 mM magnesium sulphate, 15 mM DTT, pH 7.8) are added to the test cultures, which are shaken for approx. 1 minute and the luciferase activity is measured using a camera system. The EC50 values are determined, i.e., the concentrations at which 50% of the luciferase answer is inhibited in the case of the A1 cell, and, respectively, 50% of the maximum stimulation with the corresponding substance is achieved in the case of the A2b and A2a cells. […] Pharmacol., 357 (1998), 1-9).

adenosine A2a receptor = biological target: T2, adenosine A2a receptor (Homo sapiens, UniProt P29274); experiment: Indirect determination of adenosine agonism by way of gene expression (cAMP-dependent luciferase), A2a cells; details: CHO cells stably transfected with A2a receptor cDNA; 50% of the maximum stimulation of luciferase
T2 construct: expressed in transfected cells; host or cells: CHO (Chinese Hamster Ovary)
Description: as §1, §2, §3

adenosine A2b receptor = biological target: T3, adenosine A2b receptor (Homo sapiens, UniProt P29275); experiment: Indirect determination of adenosine agonism by way of gene expression (cAMP-dependent luciferase), A2b cells; details: CHO cells stably transfected with A2b receptor cDNA; 50% of the maximum stimulation of luciferase
T3 construct: expressed in transfected cells; host or cells: CHO (Chinese Hamster Ovary)
T3 sequence (P29275 1-332): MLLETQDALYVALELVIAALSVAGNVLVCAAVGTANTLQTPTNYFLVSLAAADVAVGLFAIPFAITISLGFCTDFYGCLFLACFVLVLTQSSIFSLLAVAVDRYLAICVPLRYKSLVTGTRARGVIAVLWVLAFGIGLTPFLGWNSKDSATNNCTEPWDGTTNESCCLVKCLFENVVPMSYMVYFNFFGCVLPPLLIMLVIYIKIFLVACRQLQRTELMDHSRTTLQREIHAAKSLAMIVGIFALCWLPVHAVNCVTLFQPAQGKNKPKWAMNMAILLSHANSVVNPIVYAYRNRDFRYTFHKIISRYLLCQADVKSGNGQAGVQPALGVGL
Description: as §1, §2, §3

T2 sequence (P29274 whole entry): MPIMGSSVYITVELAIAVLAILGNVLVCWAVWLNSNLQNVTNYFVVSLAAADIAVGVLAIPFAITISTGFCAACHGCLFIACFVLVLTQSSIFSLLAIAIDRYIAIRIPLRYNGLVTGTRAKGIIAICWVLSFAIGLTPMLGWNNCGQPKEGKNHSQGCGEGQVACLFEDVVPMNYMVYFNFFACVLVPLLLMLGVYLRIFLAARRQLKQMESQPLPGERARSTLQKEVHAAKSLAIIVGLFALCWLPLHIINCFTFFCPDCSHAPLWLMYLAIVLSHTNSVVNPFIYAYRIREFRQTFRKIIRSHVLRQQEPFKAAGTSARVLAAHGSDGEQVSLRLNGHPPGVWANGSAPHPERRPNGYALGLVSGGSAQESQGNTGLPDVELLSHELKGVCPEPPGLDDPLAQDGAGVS

Structure (SMILES) | EC50 (adenosine A1 receptor) [nM] | EC50 (adenosine A2a receptor) [nM] | EC50 (adenosine A2b receptor) [nM]
N#Cc1c(N)nc(SCc2coc(-c3ccc(Cl)cc3)n2)c(C#N)c1-c1ccc(OCCO)nc1 [Example 31] | 0.09 | 101 | 235
N#Cc1c(N)nc(SCc2coc(-c3ccc(Cl)cc3)n2)c(C#N)c1-c1ccc(OC[C@H](O)CO)nc1 [Example 43, 2′-Amino-6′-({[2-(4-chlorophenyl)-1,3-oxazol-4-yl]methyl}thio)-6-{[(2R)-2,3-dihydroxypropyl]-oxy}-3,4′-bipyridine-3′,5′-dicarbonitrile] | 0.04 | 72 | 185
N#Cc1c(N)nc(SCc2cccc(Nc3ccncc3)n2)c(C#N)c1-c1ccc(OCCO)nc1 [Example 22] | 0.6 | 120 | 117
N#Cc1c(N)nc(SCc2csc(Nc3ccc(F)cc3)n2)c(C#N)c1-c1ccc(OCCO)nc1 [Example 3] | 0.2 | 123 | 3.7
N#Cc1c(N)nc(SCc2cscn2)c(C#N)c1-c1ccc(OCCO)nc1 [Example 13] | 0.09 | 21 | 5.5
N#Cc1c(SCc2csc(-c3ccc(Cl)cc3)n2)nc(N2CCCC2)c(C#N)c1-c1ccc(OCCO)nc1 [Example 44, 2′-({[2-(4-Chlorophenyl)-1,3-thiazol-4-yl]methyl}thio)-6-(2-hydroxyethoxy)-6′-pyrrolidin-1-yl-3,4′-bipyridine-3′,5′-dicarbonitrile] | 0.08 | 547 | 95
N#Cc1c(N)nc(SCc2ncon2)c(C#N)c1-c1ccc(OCCO)nc1 [Example 25] | 4.1 | > 3000 | > 3000
N#Cc1c(N)nc(SCc2csc(Nc3ccc(F)c(Cl)c3)n2)c(C#N)c1-c1ccc(OCCO)nc1 [Example 1, 2′-Amino-6′-[({2-[(3-chloro-4-fluorophenyl)amino]-1,3-thiazol-4-yl}methyl)thio]-6-(2-hydroxyethoxy)-3,4′-bipyridine-3′,5′-dicarbonitrile] | 0.8 | 2180 | 5.8
N#Cc1c(N)nc(SCc2csc(-c3ccc(Cl)cc3)n2)c(C#N)c1-c1ccc(OCCO)nc1 [Example 19, 2′-Amino-6′-({[2-(4-chlorophenyl)-1,3-thiazol-4-yl]methyl}thio)-6-(2-hydroxyethoxy)-3,4′-bipyridine-3′,5′-dicarbonitrile] | 0.04 | 663 | 234

More lines, in order of falling EC50 (adenosine A1 receptor), values ahead:

EC50 (adenosine A1 receptor) [nM] | EC50 (adenosine A2a receptor) [nM] | EC50 (adenosine A2b receptor) [nM] | Structure (SMILES)
3.6 | > 3000 | > 3000 | Cc1cc(CSc2nc(N)c(C#N)c(-c3ccc(OCCO)nc3)c2C#N)nc(Nc2ccc(F)cc2)n1 [Example 21]
0.6 | 190 | 8.5 | N#Cc1c(N)nc(SCc2csc(Nc3cccc(F)c3)n2)c(C#N)c1-c1ccc(OCCO)nc1 [Example 5]
0.4 | 150 | 5.7 | N#Cc1c(N)nc(SCc2csc(Nc3ccc(F)c(F)c3)n2)c(C#N)c1-c1ccc(OCCO)nc1 [Example 11]
0.3 | 1750 | 1260 | Cc1oc(-c2ccc(Cl)cc2)nc1CSc1nc(N)c(C#N)c(-c2ccc(OCCO)nc2)c1C#N [Example 37]
0.09 | 355 | 516 | N#Cc1c(N)nc(SCc2coc(-c3ccc(Cl)cc3)n2)c(C#N)c1-c1ccc(OC[C@@H](O)CO)nc1 [Example 42, 2′-Amino-6′-({[2-(4-chlorophenyl)-1,3-oxazol-4-yl]methyl}thio)-6-{[(2S)-2,3-dihydroxypropyl]-oxy}-3,4′-bipyridine-3′,5′-dicarbonitrile]
0.04 | 266 | 166 | N#Cc1c(NCCO)nc(SCc2csc(-c3ccc(Cl)cc3)n2)c(C#N)c1-c1ccc(OCCO)nc1 [Example 46]

Reference: patent publication US8653109B2, “Substituted bipyridine derivatives and their use as adenosine receptor ligands” (Bayer Intellectual Property GmbH, priority 2006, dated 2014)
